Experimental data from US6528618B1, “Anti-inflammatory peptides derived from C-reactive protein” (Yeda Research and Development Co. Ltd., priority 1997, dated 2003).
Entries after “also recorded” stand apart in the source; their conditions may differ. Where a SMILES comes first, the peptide text is derived from it.

How the values were obtained:
[1] = target: T1, human leukocyte elastase (hLE) (Homo sapiens, UniProt P08246); assay: In vitro inhibition of hLE (cleavage of MeOSuc-AAPV-NA); format: biochemical; settings: for fold decrease in hLE inhibitory activity compared to peptide 6: relative to peptide 6
T1 construct: Neutrophils (1.4 billion) were isolated from whole blood obtained from a single healthy laboratory donor; from tissue; host or cells: neutrophils from whole blood of a single healthy donor
T1 sequence (P08246 30-247 limits assumed): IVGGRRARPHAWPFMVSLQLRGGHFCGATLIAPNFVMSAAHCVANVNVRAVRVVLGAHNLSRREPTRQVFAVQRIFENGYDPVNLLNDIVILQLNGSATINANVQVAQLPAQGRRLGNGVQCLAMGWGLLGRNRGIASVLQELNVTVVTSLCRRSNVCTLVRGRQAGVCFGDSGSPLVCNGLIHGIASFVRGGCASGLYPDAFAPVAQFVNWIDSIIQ
Protocol: (§1) The enzymatic activity was assayed with MeOSuc-AAPV-NA for hLE determination and Suc-AAPF-NA for hCG determination (both in 100 mM Hepes buffer, pH 7.4, containing 0.05% of the […] detergent Brij-35). The activities of the individual enzymatic fractions were 100% free from cross-contamination. […] The fractions containing hLE and hCG were dialyzed each against 0.1% pyridinium acetate, pH 5.3, divided into 20 aliquots, lyophilized, and stored at −20 ° C. until use.
(v) Inhibition experiments with hLE: Peptides were dissolved in 100 mM Hepes buffer pH 7.4 containing 0.1% Brij-35 with 10%. DMSO to yield 300 μM solutions, which were used to make further dilutions with the same buffer, and 80 μL aliquots were added in duplicates to 96-well plates. The substrate, 600 μM MeOSuc-AAPV-NA in the same buffer with 5% DMSO, was added to each well in addition to the blank wells, and the plate was placed in the plate reader equilibrated to 37 C (Dynateck MR-6000). Lyophilized aliquots of hLE were dissolved in 1600 μL of 100 mM Hepes buffer without DMSO, and 80 μL of the enzyme solution was added to the peptides and substrate to initiate the reaction. […] The final volume was 240 μL containing: 5% DMSO, 1-100 μM of peptide, 200 μM substrate, and 0.75 μg (˜25 picomol) enzyme.
(viii) Calculations: For hLE, V is determined by fitting a linear equation to the first 6 time-points (10 min) of the kinetics data using the least squares method. […] Several inhibitor concentration in duplicates and two control wells were used to fit a linear equation to graphs of Vo/Vi−1 vs. [I] for each inhibitor using the least squares method (8 data points for each inhibitor). From calculating the error in the slope of the equation, the relative error for Ki was deduced:
Ki={slope*(1+[S]/Km)}^−1because Ki=[I]*{(1+[S]/Km)*(Vo/Vi−1)}^−1.
The hLE inhibitory capability of CRP-derived peptides was evaluated by inhibiting the enzymatic cleavage of MeOSuc-AAPV-NA as described in Materials and Methods (section v).

[2] = target: T2, human leukocyte cathepsin G (hCG) (Homo sapiens, UniProt P08311); assay: In vitro inhibition of hCG (cleavage of Suc-AAPF-NA); format: biochemical
T2 construct: Neutrophils (1.4 billion) were isolated from whole blood obtained from a single healthy laboratory donor; from tissue; host or cells: neutrophils from whole blood of a single healthy donor
T2 sequence (P08311 21-243 limits assumed): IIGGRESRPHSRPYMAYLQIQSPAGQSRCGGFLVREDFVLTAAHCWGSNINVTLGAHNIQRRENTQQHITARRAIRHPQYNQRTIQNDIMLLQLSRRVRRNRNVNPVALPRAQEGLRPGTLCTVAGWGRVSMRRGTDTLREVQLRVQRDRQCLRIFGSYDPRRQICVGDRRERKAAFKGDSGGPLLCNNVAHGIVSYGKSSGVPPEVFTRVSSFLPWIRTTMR
Protocol: as §1
vi) Inhibition experiments with hCG: Similar conditions to hLE inhibition experiments were used except the substrate: 80 μL of 1.80 mM Suc-AAPF-NA. The enzyme was dissolved in 800 μL buffer, and the reaction was monitored every 6 min for 1 hour. The final volume was 240 μL containing: 5% DMSO, 1-100 μM peptide, 600 μM substrate, and 1.2 μg enzyme (about 40 picomol).
For hCG, V is determined by fitting a quadratic equation to the total kinetic data (60 min), using the least squares method and calculating V at t=0.
The hCG inhibitory capability of CRP-derived peptides was evaluated by inhibiting the enzymatic cleavage of Suc-AAPF-NA as described in Materials and Methods (section vi).

[3] = hLE Ki [μM], Table 1, substrate MeOSuc-AAPV-NA 200 μM, pH 7.4, 37 C
[4] = hCG Ki [μM], Table 1, substrate Suc-AAPF-NA 600 μM, pH 7.4
[5] = hLE Ki [μM], Table 2, substrate MeOSuc-AAPV-NA 200 μM, pH 7.4, 37 C

`CC[C@H](C)[C@H](NC(=O)[C@H](CO)NC(=O)[C@H](Cc1ccc(O)cc1)NC(=O)CNC(=O)[C@H](CCCNC(=N)N)NC(=O)[C@@H](NC(=O)[C@H](CO)NC(=O)[C@H](CO)NC(=O)[C@H](CC(C)C)NC(=O)[C@H](CCC(=O)O)NC(=O)[C@@H](NC(=O)[C@H](Cc1ccc(O)cc1)NC(=O)[C@H](Cc1ccccc1)NC(=O)[C@H](Cc1c[nH]cn1)NC(=O)[C@@H](N)CC(C)C)[C@@H](C)O)[C@@H](C)O)C(=O)O` [Peptide 1, Leu-His-Phe-Tyr-Thr-Glu-Leu-Ser-Ser-Thr-Arg-Gly-Tyr-Ser-Ile] (H-LHFYTELSSTRGYSI-OH) showed a Ki [1, 3] greater than 200 µM and a Ki [2, 4] greater than 200 µM.

With `CC[C@H](C)[C@H](NC(=O)[C@H](CO)NC(=O)[C@H](Cc1ccc(O)cc1)NC(=O)CNC(=O)[C@H](CCCNC(=N)N)NC(=O)[C@@H](NC(=O)[C@H](CO)NC(=O)[C@H](CO)NC(=O)[C@H](CC(C)C)NC(=O)[C@@H](N)CCC(=O)O)[C@@H](C)O)C(=O)N[C@@H](Cc1ccccc1)C(=O)N[C@@H](CO)C(=O)N[C@@H](Cc1ccc(O)cc1)C(=O)N[C@@H](C)C(=O)N[C@H](C(=O)O)[C@@H](C)O` [Peptide 2, Glu-Leu-Ser-Ser-Thr-Arg-Gly-Tyr-Ser-Ile-Phe-Ser-Tyr-Ala-Thr] (H-ELSSTRGYSIFSYAT-OH) the Ki [1, 3] was greater than 200 µM and the Ki [2, 4] was greater than 200 µM.

`CC[C@H](C)[C@H](NC(=O)[C@H](CO)NC(=O)[C@H](Cc1ccc(O)cc1)NC(=O)CNC(=O)[C@@H](N)CCCNC(=N)N)C(=O)N[C@@H](Cc1ccccc1)C(=O)N[C@@H](CO)C(=O)N[C@@H](Cc1ccc(O)cc1)C(=O)N[C@@H](C)C(=O)N[C@H](C(=O)N[C@@H](CCCCN)C(=O)N[C@@H](CCCNC(=N)N)C(=O)N[C@@H](CCC(N)=O)C(=O)N[C@@H](CC(=O)O)C(=O)N[C@@H](CC(N)=O)C(=O)O)[C@@H](C)O` [Peptide 3, Arg-Gly-Tyr-Ser-Ile-Phe-Ser-Tyr-Ala-Thr-Lys-Arg-Gln-Asp-Asn] (H-RGYSIFSYATKRQDN-OH) gave a Ki [1, 3] greater than 200 µM and a Ki [2, 4] greater than 200 µM.

Compound `CC[C@H](C)[C@H](NC(=O)[C@H](CC(C)C)NC(=O)[C@@H](NC(=O)[C@H](CCC(=O)O)NC(=O)[C@H](CC(N)=O)NC(=O)[C@H](CC(=O)O)NC(=O)[C@H](CCC(N)=O)NC(=O)[C@H](CCCNC(=N)N)NC(=O)[C@H](CCCCN)NC(=O)[C@@H](NC(=O)[C@H](C)NC(=O)[C@H](Cc1ccc(O)cc1)NC(=O)[C@H](CO)NC(=O)[C@@H](N)Cc1ccccc1)[C@@H](C)O)[C@@H](C)CC)C(=O)N[C@@H](Cc1ccccc1)C(=O)O` [Peptide 4, Phe-Ser-Tyr-Ala-Thr-Lys-Arg-Gln-Asp-Asn-Glu-Ile-Leu-Ile-Phe] (H-FSYATKRQDNEILIF-OH) has a Ki [1, 3] greater than 200 µM and a Ki [2, 4] greater than 200 µM.

In the case of `CC[C@H](C)[C@H](NC(=O)[C@H](CC(=O)O)NC(=O)[C@H](CCCCN)NC(=O)[C@H](CO)NC(=O)[C@H](Cc1c[nH]c2ccccc12)NC(=O)[C@H](Cc1ccccc1)NC(=O)[C@@H](NC(=O)[C@H](CC(C)C)NC(=O)[C@@H](NC(=O)[C@H](CCC(=O)O)NC(=O)[C@H](CC(N)=O)NC(=O)[C@H](CC(=O)O)NC(=O)[C@H](CCC(N)=O)NC(=O)[C@H](CCCNC(=N)N)NC(=O)[C@@H](N)CCCCN)[C@@H](C)CC)[C@@H](C)CC)C(=O)O` [Peptide 5, Lys-Arg-Gln-Asp-Asn-Glu-Ile-Leu-Ile-Phe-Trp-Ser-Lys-Asp-Ile] (H-KRQDNEILIFWSKDI-OH; N-terminus and C-terminus assumed), the “hLE inhibitory activity (in words)” value [1] is reported as “two orders of magnitude less potent than peptide 6; also recorded: lowered the inhibitory capability by more than one order of magnitude”, the Ki ([1]; hLE inhibitory activity range) is reported as 50 to 100 µM and the Ki ([2]; hCG inhibitory activity range) is reported as 150 to 200 µM.

In the case of `CC[C@H](C)[C@H](NC(=O)[C@H](CC(=O)O)NC(=O)[C@H](CCCCN)NC(=O)[C@H](CO)NC(=O)[C@H](Cc1c[nH]c2ccccc12)NC(=O)[C@H](Cc1ccccc1)NC(=O)[C@@H](NC(=O)[C@H](CC(C)C)NC(=O)[C@@H](NC(=O)[C@@H](N)CC(=O)O)[C@@H](C)CC)[C@@H](C)CC)C(=O)NCC(=O)N[C@@H](Cc1ccc(O)cc1)C(=O)N[C@@H](CO)C(=O)N[C@@H](Cc1ccccc1)C(=O)N[C@H](C(=O)O)[C@@H](C)O` [Peptide 18, Asp-Ile-Leu-Ile-Phe-Trp-Ser-Lys-Asp-Ile-Gly-Tyr-Ser-Phe-Thr] (H-DILIFWSKDIGYSFT-OH; N-terminus and C-terminus assumed), the “fold decrease in hLE inhibitory activity compared to peptide 6” value [1] is reported as 10 fold.

With `CC[C@H](C)[C@H](NC(=O)[C@H](CC(=O)O)NC(=O)[C@H](CCCCN)NC(=O)[C@@H]1CCCN1C(=O)[C@H](Cc1c[nH]c2ccccc12)NC(=O)[C@H](Cc1ccccc1)NC(=O)[C@@H](NC(=O)[C@H](CC(C)C)NC(=O)[C@@H](NC(=O)[C@@H](N)CCC(=O)O)[C@@H](C)CC)[C@@H](C)CC)C(=O)NCC(=O)N[C@@H](Cc1ccc(O)cc1)C(=O)N[C@@H](CO)C(=O)N[C@@H](Cc1ccccc1)C(=O)N[C@H](C(=O)O)[C@@H](C)O` [Peptide 19, Glu-Ile-Leu-Ile-Phe-Trp-Pro-Lys-Asp-Ile-Gly-Tyr-Ser-Phe-Thr] (H-EILIFWPKDIGYSFT-OH; N-terminus and C-terminus assumed) the “hLE inhibitory activity (in words)” value [1] was “two orders of magnitude loss of inhibitory activity” and the Ki [1, 5] was greater than 200 µM.

For `CC[C@H](C)[C@H](NC(=O)CNC(=O)[C@H](Cc1ccc(O)cc1)NC(=O)[C@H](CO)NC(=O)[C@H](Cc1ccccc1)NC(=O)[C@@H](N)[C@@H](C)O)C(=O)N[C@@H](CC(=O)O)C(=O)N[C@@H](CCCCN)C(=O)N[C@@H](CO)C(=O)N[C@@H](Cc1c[nH]c2ccccc12)C(=O)N[C@@H](Cc1ccccc1)C(=O)N[C@H](C(=O)N[C@@H](CC(C)C)C(=O)N[C@H](C(=O)N[C@@H](CCC(=O)O)C(=O)O)[C@@H](C)CC)[C@@H](C)CC` [Peptide 24, Thr-Phe-Ser-Tyr-Gly-Ile-Asp-Lys-Ser-Trp-Phe-Ile-Leu-Ile-Glu] (H-TFSYGIDKSWFILIE-OH; N-terminus and C-terminus assumed), the “fold decrease in hLE inhibitory activity compared to peptide 6” value [1] was 30 fold.

With `CC[C@H](C)[C@H](NC(=O)[C@H](CC(=O)O)NC(=O)[C@H](C)NC(=O)[C@H](CO)NC(=O)[C@H](Cc1c[nH]c2ccccc12)NC(=O)[C@H](Cc1ccccc1)NC(=O)[C@@H](NC(=O)[C@H](CC(C)C)NC(=O)[C@@H](NC(=O)[C@@H](N)CCC(=O)O)[C@@H](C)CC)[C@@H](C)CC)C(=O)O` [Peptide 25, Glu-Ile-Leu-Ile-Phe-Trp-Ser-Ala-Asp-Ile] (H-EILIFWSADI-OH; N-terminus and C-terminus assumed) the “hLE inhibitory activity (in words)” value [1] was “slightly more potent than peptide 14” and the Ki [1, 5] was 3 ± 0.5 µM.

In the case of `CC[C@H](C)[C@H](NC(=O)[C@H](CC(=O)O)NC(=O)[C@@H](NC(=O)[C@H](CO)NC(=O)[C@H](Cc1c[nH]c2ccccc12)NC(=O)[C@H](Cc1ccccc1)NC(=O)[C@@H](NC(=O)[C@H](CC(C)C)NC(=O)[C@@H](NC(=O)[C@@H](N)CCC(=O)O)[C@@H](C)CC)[C@@H](C)CC)C(C)C)C(=O)O` [Peptide 26, Glu-Ile-Leu-Ile-Phe-Trp-Ser-Val-Asp-Ile] (H-EILIFWSVDI-OH; N-terminus and C-terminus assumed), the “hLE inhibitory activity (in words)” value [1] is reported as “slightly more potent than peptide 14”.
